Assay results: US12589161B2, “PEGylated synthetic KL4 peptide, compositions and methods thereof” (THE UNIVERSITY OF HONG KONG, priority 2019, dated 2026)
Non-standard residues stand in square brackets, D forms with d. Residues, ends and D or L forms follow the SMILES beside them. PEG24 = NCCOCCOCCOCCOCCOCCOCCOCCOCCOCCOCCOCCOCCOCCOCCOCCOCCOCCOCCOCCOCCOCCOCCOCCOCCC(=O)O

Legend:
[1] = Charge ratio of peptide to siRNA at 10:1 weight ratio
From the text: This is partly because the uncharged PEG chains reduced the effective charge ratio between cationic KL4 and siRNA [77]. The charge ratios of KL4, PEG6KL4, PEG12KL4 and PEG24KL4 to siRNA at 10:1 weight ratio are 6.1 to 1, 5.5 to 1, 4.9 to 1 and 4.2 to 1, respectively. […] The molecular weight of the PEG used in this study, which is below 1,200 Da, is relatively low compared with others where PEG of 2,000 to 5,000 Da was often used. Therefore, PEGylated KL4 peptide/siRNA complexes remained to be positively charged, which is suitable for cellular entry. […] In addition, PEG also provides steric hindrance between the interaction of KL4 and siRNA that weakens the binding, promoting the release of siRNA from the complexes after the addition of heparin.

[2] = test system: Calu-3 cells; assay: GAPDH siRNA transfection on Calu-3 cells (Western blot); assay type: cell-based, human; conditions: one-way ANOVA, Tukey, n.s. not significant, * p<0.05, ** p<0.01, *** p<0.001
Experimental: (§1) A549 cells, BEAS-2B and Calu-3 cells were seeded in six-well plates at a density of 1.6×10^5 cells per well, 2×10^5 cells per well and 3×10^5 cells per well, respectively, one to two days before transfection. The cells were transfected with peptide/siRNA complexes at 5:1 to 20:1 ratio (w/w) containing GAPDH siRNA or negative control siRNA (6 to 100 nM) in OptiMEM I reduced serum medium. Lipofectamine 2000 was used for comparison. After 5 h of incubation, the cells were washed and replaced with serum supplemented cell culture medium. At 72 h post-transfection, the cells were washed and lysed with cell lysis buffer. Western blotting assay was performed to analyze the level of GAPDH protein as previously described. The GAPDH expression was analyzed by densitometry of Western blots using ImageJ software (Version 1.52). The GAPDH expression was normalized with the expression of […]-actin of the corresponding sample. The remaining GAPDH expression was the normalized GAPDH expression of positive control divided by the normalized GAPDH expression of negative control.

[3] = test system: A549 cells; assay: GAPDH siRNA transfection on A549 cells (Western blot); assay type: cell-based, human; conditions: A549, 10:1 ratio, 6 to 100 nM siRNA, 72 h
Experimental: A549 cells were seeded in 6-well plates at a density of 1.5×10^5 cells per well one day before transfection. The cells were transfected with peptide/siRNA complexes containing 50 pmol of GAPDH siRNA or negative control siRNA per well (50 nM). The complexes were prepared in OptiMEM I reduced serum medium at 10:1, 15:1 and 20:1 ratios (w/w). Lipofectamine 2000 was used as control. The complexes were added to the cells and incubated for 4 h at 5% CO2, 37° C. before being washed with PBS. The transfection medium was removed and replaced with serum supplemented cell culture medium. At 72 h post-transfection, the cells were washed and lysed with cell lysis buffer. Western blotting assay was performed to analyze the level of GAPDH protein. The GAPDH expression was analyzed by densitometry of Western Blots using Image J software. The remaining GAPDH expression was the density of the GAPDH band of positive control (normalized with beta-actin of the corresponding sample) divided by the GAPDH band of negative control (normalized with the beta actin band of the corresponding sample).
as §1

[4] = Solubility of peptides in water; assay type: physicochemical
[5] = test system: BEAS-2B cells; assay: GAPDH siRNA transfection on BEAS-2B cells (Western blot); assay type: cell-based, human; conditions: one-way ANOVA, Tukey, n.s. not significant, * p<0.05, ** p<0.01, *** p<0.001
Experimental: as §1

[6] = test system: siRNA; assay: Fluorescence displacement assay of siRNA binding and heparin release; conditions: 10:1 ratio, heparin titration
Experimental: The siRNA binding affinity of the peptides was investigated by fluorescence displacement assay using negative control siRNA. The siRNA was added into 1× SYBR® Gold Tris-acetate-EDTA (TAE) buffer and incubated for 30 min at room temperature. The fluorescence intensity was quantified by fluorescence spectrophotometer (SpectraMax® M4, Molecular devices, LLC., CA, USA) at 495 nm excitation and 537 nm emission wavelengths. The peptides at concentration of 1 mg/mL were titrated to the siRNA/dye mixtures. The fluorescence intensity of siRNA/dye mixture in the presence of peptides was expressed as a percentage of that of the siRNA/dye mixture without peptides. The background fluorescence was subtracted from all measurements before analysis. Percentage change of fluorescence intensity was plotted against the weight ratio of peptides to siRNA upon titration. To further investigate the binding profile of the peptide/siRNA complexes, heparin was added to dissociate the complexes and release the siRNA. […] The heparin diluted in TAE buffer at concentration of 10 or 100 i.u./μL was titrated into the peptide/siRNA/dye mixture and the fluorescence intensity was measured as described above. Percentage change of fluorescence intensity was plotted against the amount of heparin upon titration. The data was fit to a four-parameter logistic sigmoidal curve and the EC50 and Hill slope were calculated.

[7] = Circular dichroism, temperature ramping; assay type: physicochemical; conditions: 6 to 94 °C, 5 mM Tris-HCl buffer, 0.1 mg/mL
Experimental: KL4 and PEG6KL4 peptides were dissolved in 5 mM Tris-HCl buffer at a final concentration of 0.1 mg/mL in 0.1% (v/v) DMSO. PEG12KL4 and PEG24KL4 were dissolved in 5 mM Tris-HCl buffer at a final concentration of 0.1 mg/mL without DMSO. CD spectra were acquired on a Chirascan™ Spectrometer (Applied Photophysics, Leatherhead, UK). For temperature ramping experiment, far-UV CD spectra were obtained with the peptide solution incubated from 6° C. to 94° C. Spectra were recorded from 260 to 190 nm using a 0.5 mm path length and were processed using Chirascan software where a spectrum of the peptide free solution was subtracted and Savitzky-Gorlay smoothing applied.

charge ratio of peptide to siRNA [1]: 4.2 to 1
solubility [4]: > 2 mg/mL
binding affinity between peptide and siRNA [6]: weakest
Compound: CC(C)C[C@H](NC(=O)[C@H](CC(C)C)NC(=O)[C@H](CC(C)C)NC(=O)[C@H](CC(C)C)NC(=O)[C@H](CCCCN)NC(=O)[C@H](CC(C)C)NC(=O)[C@H](CC(C)C)NC(=O)[C@H](CC(C)C)NC(=O)[C@H](CC(C)C)NC(=O)[C@H](CCCCN)NC(=O)[C@H](CC(C)C)NC(=O)[C@H](CC(C)C)NC(=O)[C@H](CC(C)C)NC(=O)[C@H](CC(C)C)NC(=O)[C@H](CCCCN)NC(=O)[C@H](CC(C)C)NC(=O)[C@H](CC(C)C)NC(=O)[C@H](CC(C)C)NC(=O)[C@H](CC(C)C)NC(=O)[C@H](CCCCN)NC(=O)CCOCCOCCOCCOCCOCCOCCOCCOCCOCCOCCOCCOCCOCCOCCOCCOCCOCCOCCOCCOCCOCCOCCOCCOCCN)C(=O)N[C@@H](CCCCN)C(N)=O [PEG24KL4] (H-[PEG24]KLLLLKLLLLKLLLLKLLLLK-NH2; N-terminus assumed)
Comparison within the same peptide prepared at different peptide to siRNA ratios [2]: n.s.
siRNA transfection efficiency among the four peptides at different amounts of siRNA [3]: lowest transfection efficiency
Comparison within the same peptide prepared at different peptide to siRNA ratios [5]: 5:1 vs 20:1 *
secondary structure at different temperatures (far-UV CD) [7]: adopted an alpha-helical structure at all tested temperatures
